The source made the active and inactive calls.
What was measured:
[1] = target: T1, Intestinal-type alkaline phosphatase (Homo sapiens, UniProt P09923); experiment: activation of human intestinal alkaline phosphatase – biochemical, luminescent, uHTS hits, set 2, dose response (AID 488817); assay type: functional;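 also: potency of activators that raise enzyme activity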
[2] = target: T2, RNA-binding protein pos-1 (Caenorhabditis elegans, UniProt G5EF15); experiment: disruptors of C. elegans POS-1 RNA interaction – biochemical, fluorescence polarization, dose response (AID 1964);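 also: purified POS-1 fused to maltose binding protein made in E. coli; potency of compounds blocking POS-1 binding to fluorescent RNA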
T2 sequence (G5EF15 whole entry): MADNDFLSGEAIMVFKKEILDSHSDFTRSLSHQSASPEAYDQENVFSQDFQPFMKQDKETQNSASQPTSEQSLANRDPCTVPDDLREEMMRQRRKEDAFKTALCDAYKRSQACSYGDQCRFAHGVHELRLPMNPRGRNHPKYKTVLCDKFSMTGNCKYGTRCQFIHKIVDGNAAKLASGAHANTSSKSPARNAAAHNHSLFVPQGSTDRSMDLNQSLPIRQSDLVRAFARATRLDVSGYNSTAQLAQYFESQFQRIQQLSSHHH

[3] = target: T3, Alkaline phosphatase, tissue-nonspecific isozyme (Homo sapiens, UniProt P05186); experiment: activation of tissue-nonspecific alkaline phosphatase – biochemical, TNAP isozyme, human IAP uHTS hits, selectivity assay for human IAP activator project, dose response (AID 488886); assay type: functional;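 also: potency of compounds raising TNAP activity as a selectivity check on IAP activators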
T3 sequence (P05186 whole entry): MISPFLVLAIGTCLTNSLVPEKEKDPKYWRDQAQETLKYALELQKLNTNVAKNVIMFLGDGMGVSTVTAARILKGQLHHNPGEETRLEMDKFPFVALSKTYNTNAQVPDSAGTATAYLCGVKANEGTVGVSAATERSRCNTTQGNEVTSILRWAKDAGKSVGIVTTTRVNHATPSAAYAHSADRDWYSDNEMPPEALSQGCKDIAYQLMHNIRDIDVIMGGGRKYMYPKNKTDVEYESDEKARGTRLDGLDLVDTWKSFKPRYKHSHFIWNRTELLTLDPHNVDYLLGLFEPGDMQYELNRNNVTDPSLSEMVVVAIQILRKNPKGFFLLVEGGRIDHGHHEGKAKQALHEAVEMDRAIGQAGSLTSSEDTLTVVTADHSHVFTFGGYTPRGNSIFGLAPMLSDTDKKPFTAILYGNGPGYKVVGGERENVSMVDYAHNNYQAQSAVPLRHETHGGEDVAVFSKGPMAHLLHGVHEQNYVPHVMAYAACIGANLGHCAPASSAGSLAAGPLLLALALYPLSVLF

[4] = target: Intestinal-type alkaline phosphatase (Mus musculus, UniProt P24822); experiment: PubChem AID 488874; assay type: functional
[5] = target: T1, Intestinal-type alkaline phosphatase; experiment: human intestinal alkaline phosphatase activators, dose response, biochemical, luminescence, uHTS hits (AID 463120); assay type: functional
[6] = target: T4, Runt-related transcription factor 1/Core-binding factor subunit beta (Homo sapiens, UniProt Q01196+Q13951); experiment: disruptors of Runt domain/CBFb-SMMHC interaction – biochemical, FRET, Cerulean-Runt, Venus-CBFb-SMMHC, uHTS, […] (AID 1434); assay type: protein assay
[7] = target: T4, Runt-related transcription factor 1/Core-binding factor subunit beta; experiment: Runt domain/CBFb-SMMHC interaction disruptors – biochemical, TR-FRET (AID 1438); assay type: protein assay
[8] = target: T5, Tyrosine-protein phosphatase non-receptor type 7 (Homo sapiens, UniProt P35236); experiment: inhibition of hematopoietic tyrosine phosphatase HePTP – biochemical, set 2, SAR follow-up (AID 449736); assay type: functional
T5 sequence (P35236 whole entry): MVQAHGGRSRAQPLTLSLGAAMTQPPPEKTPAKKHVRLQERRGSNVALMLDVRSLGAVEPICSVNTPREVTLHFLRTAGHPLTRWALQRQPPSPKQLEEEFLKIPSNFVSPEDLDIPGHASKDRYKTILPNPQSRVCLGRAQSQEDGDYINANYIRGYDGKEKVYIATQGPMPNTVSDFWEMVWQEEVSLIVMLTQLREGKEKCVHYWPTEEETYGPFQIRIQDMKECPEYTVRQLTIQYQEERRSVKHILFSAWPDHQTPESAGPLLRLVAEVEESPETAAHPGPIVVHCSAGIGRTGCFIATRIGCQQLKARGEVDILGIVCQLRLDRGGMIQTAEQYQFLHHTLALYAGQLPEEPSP

Phosphomannomutase 2 = Phosphomannomutase 2 (Homo sapiens, UniProt O15305); experiment: Counter screen SAR assay for PMM2 inhibitors via a fluorescence intensity assay. [Related pubchem assays (depositor defined):AID1545, AID1574]
[9] = target: T6, Mannose-6-phosphate isomerase (Homo sapiens, UniProt P34949); experiment: phosphomannose isomerase inhibition – biochemical, fluorescence intensity, confirmation (AID 1535)
T6 sequence (P34949 whole entry): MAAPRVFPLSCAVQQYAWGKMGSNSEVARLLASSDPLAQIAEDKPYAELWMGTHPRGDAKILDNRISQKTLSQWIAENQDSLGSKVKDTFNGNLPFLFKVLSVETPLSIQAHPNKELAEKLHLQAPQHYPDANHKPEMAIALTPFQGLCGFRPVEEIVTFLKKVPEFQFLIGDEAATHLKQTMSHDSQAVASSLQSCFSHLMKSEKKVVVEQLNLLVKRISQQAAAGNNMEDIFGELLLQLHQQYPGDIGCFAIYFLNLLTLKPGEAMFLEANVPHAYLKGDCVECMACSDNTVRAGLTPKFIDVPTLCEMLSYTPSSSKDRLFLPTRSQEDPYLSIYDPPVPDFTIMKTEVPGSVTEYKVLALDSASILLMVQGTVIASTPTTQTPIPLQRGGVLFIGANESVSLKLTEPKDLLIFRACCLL

[10] = target: T7, Sphingosine 1-phosphate receptor 4 (Homo sapiens, UniProt O95977); experiment: Fluorescence dose response cell-based high throughput screening assay for agonists of the Sphingosine 1-Phosphate Receptor 4 (S1P4). [Related pubchem assays: 1509 (Primary screen.), 1523 (Confirmation screen in triplicates.)]; assay type: functional
T7 sequence (O95977 whole entry): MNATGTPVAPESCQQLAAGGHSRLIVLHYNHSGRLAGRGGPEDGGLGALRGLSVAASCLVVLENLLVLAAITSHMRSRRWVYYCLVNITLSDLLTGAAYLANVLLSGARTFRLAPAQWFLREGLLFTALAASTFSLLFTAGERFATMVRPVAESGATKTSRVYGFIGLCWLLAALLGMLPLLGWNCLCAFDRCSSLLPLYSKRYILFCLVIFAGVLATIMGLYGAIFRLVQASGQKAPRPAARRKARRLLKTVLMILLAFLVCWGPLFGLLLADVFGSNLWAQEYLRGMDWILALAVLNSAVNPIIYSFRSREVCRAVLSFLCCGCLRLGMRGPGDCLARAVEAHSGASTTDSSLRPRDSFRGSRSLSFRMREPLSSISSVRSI

[11] = target: Sphingosine 1-phosphate receptor 1 (Homo sapiens, UniProt P21453); experiment: Fluorescence-based counterscreen assay for S1P4 agonists: Cell-based dose response high throughput screening assay to identify agonists of the Sphingosine 1-Phosphate Receptor 1 (S1P1). [Related pubchem assays (depositor defined):AID1509, AID1523, AID1801, AID463107, AID463118, AID463119, AID463122, AID463123, AID463129, AID463225, AID504400, AID504460]; assay type: functional
Troponin, cardiac muscle = Troponin, cardiac muscle (Homo sapiens, UniProt P19429+P45379+P63316); experiment: Fluorescence-based biochemical high throughput dose response assay for activators of the calcium sensitivity of cardiac Regulated Thin Filaments (RTF). [Related pubchem assays (depositor defined):AID493008, AID493018, AID504382, AID504383]; assay type: protein-complex assay
[12] = target: T8, Corticotropin-releasing factor receptor 2/Corticotropin-releasing factor-binding protein (Homo sapiens, UniProt P24387+Q13324); experiment: activators of CRF receptor 2 with binding protein – uHTS hits, confirmation (AID 602473); assay type: functional; conditions: read-out: EC50_Mean
T8 sequence (Q13324 whole entry): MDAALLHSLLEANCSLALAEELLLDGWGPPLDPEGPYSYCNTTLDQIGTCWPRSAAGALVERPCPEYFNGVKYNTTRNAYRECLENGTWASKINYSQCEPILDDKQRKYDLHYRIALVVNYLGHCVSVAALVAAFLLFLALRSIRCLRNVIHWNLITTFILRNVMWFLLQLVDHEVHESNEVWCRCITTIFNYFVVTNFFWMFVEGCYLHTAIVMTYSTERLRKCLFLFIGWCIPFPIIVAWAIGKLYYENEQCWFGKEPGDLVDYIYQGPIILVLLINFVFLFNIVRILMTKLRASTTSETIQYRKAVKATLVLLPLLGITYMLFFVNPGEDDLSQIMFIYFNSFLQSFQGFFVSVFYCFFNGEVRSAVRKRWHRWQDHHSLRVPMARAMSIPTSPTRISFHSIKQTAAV
T8 sequence (P24387 whole entry): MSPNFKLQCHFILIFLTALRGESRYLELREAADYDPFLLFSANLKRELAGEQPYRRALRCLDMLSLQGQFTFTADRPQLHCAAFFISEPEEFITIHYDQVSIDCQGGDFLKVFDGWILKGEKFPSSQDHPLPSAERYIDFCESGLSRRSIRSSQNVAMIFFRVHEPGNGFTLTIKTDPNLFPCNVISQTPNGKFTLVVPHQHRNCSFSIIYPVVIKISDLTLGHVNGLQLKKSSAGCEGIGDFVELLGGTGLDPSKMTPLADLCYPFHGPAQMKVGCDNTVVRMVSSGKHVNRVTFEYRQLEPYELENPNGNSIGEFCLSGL

Mu-type opioid receptor [13] = target: T9, Mu-type opioid receptor (Homo sapiens, UniProt P35372); experiment: mu opioid receptor blockers – image-based, SAR follow-up (AID 2420); assay type: functional;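 also: compounds added before stimulation of receptor with agonist DAMGO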
[14] = target: T10, Kappa-type opioid receptor (Homo sapiens, UniProt P41145); experiment: kappa opioid receptor activation potency – imaging, image-based, SAR follow-up (AID 2359); assay type: functional
[15] = target: T11, Delta-type opioid receptor (Homo sapiens, UniProt P41143); experiment: delta opioid receptor blockers – image-based, SAR follow-up (AID 2357); assay type: functional
[16] = target: T11, Delta-type opioid receptor; experiment: DOR agonists, SAR follow-up, image-based (AID 2370); assay type: functional
Mu-type opioid receptor [17] = target: T9, Mu-type opioid receptor; experiment: mu opioid receptor activators, image-based, SAR follow-up (AID 2352); assay type: functional
[18] = target: T10, Kappa-type opioid receptor; experiment: kappa opioid receptor blockers, image-based, SAR follow-up (AID 2348); assay type: functional
[19] = target: T10, Kappa-type opioid receptor; experiment: SAR analysis of small molecule agonists of the kappa opioid receptor via a luminescent beta-arrestin assay. [Related pubchem assays (depositor defined):AID1777, AID1786, AID1966, AID2133, AID2136, AID2348, AID2352, AID2357, AID2359, AID2370, AID2420, AID2478, AID2491, AID2492, AID2493, AID2497, AID2498, AID2500, AID449737, AID488822, AID488842]; assay type: functional
[20] = target: T12, Calpain-2 catalytic subunit (Sus scrofa, UniProt P43367); experiment: m-calpain protease blockers, concentration series – biochemical, fluorogenic peptide substrate, dose response (AID 1420); assay type: functional
T12 sequence (P43367 whole entry): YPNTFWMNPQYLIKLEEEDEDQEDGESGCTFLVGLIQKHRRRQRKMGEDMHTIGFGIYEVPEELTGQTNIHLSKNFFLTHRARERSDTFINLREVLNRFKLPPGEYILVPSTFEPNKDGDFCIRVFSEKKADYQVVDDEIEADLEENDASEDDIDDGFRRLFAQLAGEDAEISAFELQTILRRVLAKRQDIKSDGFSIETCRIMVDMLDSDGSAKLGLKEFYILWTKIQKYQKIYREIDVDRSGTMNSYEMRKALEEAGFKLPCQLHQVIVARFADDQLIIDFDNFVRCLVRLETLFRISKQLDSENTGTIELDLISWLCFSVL

[21] = target: T13, E3 ubiquitin-protein ligase XIAP (Homo sapiens, UniProt P98170); experiment: small molecules displacing peptide from XIAP – biochemical, IAP family, fluorescence polarization (AID 1018); assay type: functional
[22] = HPDE-C7 pancreatic duct cell viability loss – fluorescence, HTS (AID 430); assay type: functional, cell-based; conditions: Homo sapiens
[23] = viability loss of HPDE-C7K cells – cell-based, fluorescence, HTS, primary screen (AID 431); assay type: functional; conditions: Homo sapiens
[24] = target: T13, E3 ubiquitin-protein ligase XIAP; experiment: Counter Screen using XIAP-Bir3 for Chemical Antagonists of Bir1/2 domains of IAP-family anti-apoptotic proteins. [Related pubchem assays (depositor defined):AID1018, AID1449, AID1514, AID1638, AID1749, AID1750, AID488957, AID488963]

SMILES: Cc1n[nH]c(S/C(=C/c2ccc(-c3ccc(Cl)cc3)o2)C(=O)O)n1
- EC50 [1]: 12.1 µM (active)
- EC50 [2]: 25.4 µM (active)
- EC50 [3]: > 100 µM (inactive)
- IC50 [4]: 54.3 µM (active)
- EC50 [5]: 12.8 µM (active)

SMILES: CCNc1sc(C(=O)c2cccs2)c(N)c1-c1nc2ccccc2s1
- IC50 [6]: > 100 µM (inactive)
- IC50 [7]: 63.2 µM (inactive)

SMILES: NS(=O)(=O)c1ccc(NC(=O)N2CCN(Cc3ccccc3)CC2)cc1
- IC50 [8]: > 100 µM (inactive)

SMILES: Clc1nss/c1=N\c1ccc2ncccc2c1
- IC50 (Phosphomannomutase 2): > 100 µM (inactive)
- IC50 [9]: 23.6 µM (active)

SMILES: CCCN(CCC)c1ccc(/C=C/c2ccc3cc(OCC)ccc3n2)cc1
- EC50 [10]: > 49.8 µM (not active)
- EC50 [11]: > 5.53 µM (inactive)

SMILES: Cc1ccc[n+](-c2[n-]c(=O)sc2C=O)c1
- EC50 (Troponin, cardiac muscle): 2.18 µM (active)
- EC50 [12]: 11.5 µM (active)

SMILES: COc1ccc(C)cc1NC(=O)CSc1nnc(-c2ccccn2)n1Cc1ccco1
- IC50 (Mu-type opioid receptor [13]): > 32 µM (inactive)
- EC50 [14]: > 32 µM (inactive)
- IC50 [15]: > 32 µM (inactive)
- EC50 [16]: > 32 µM (inactive)
- EC50 (Mu-type opioid receptor [17]): > 32 µM (inactive)
- IC50 [18]: > 32 µM (inactive)
- EC50 [19]: > 10 µM (inactive)

SMILES: COc1ccccc1-c1nnc(SCC(=O)NCc2c(C)c(Cl)cc(C(C)C)c2O)o1
- IC50 [20]: 15.8 µM (not active)
- IC50 [21]: > 100 µM (not active)
- EC50 [22]: 10.1 µM (active)
- EC50 [23]: 12 µM (active)
- IC50 [24]: > 100 µM (inactive)

From ChEMBL document CHEMBL1201862, “PubChem BioAssay data set” (2004)
